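Dose response: 5 concentrations. Exposure: 48 h. Format: 96-well plates. Endpoint: linear interpolation; highest concentration if not reached. GI50: concentration for 50% inhibition of growth. TGI is the concentration that stops growth completely.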
Experiments:
Assay in all cases: growth of human tumour cells (NCI), 48 h
[1] = test system: HOP-92 NSCLC
[2] = test system: HCT-15 colon
[3] = test system: HCC-2998 colon
[4] = test system: HL-60(TB) leukemia
[5] = test system: CCRF-CEM leukemia
[6] = test system: NCI-H460 lung
[7] = test system: A498 renal
[8] = test system: UACC-62 melanoma
[9] = test system: OVCAR-8 ovarian
[10] = test system: OVCAR-4 ovarian

| SMILES | GI50 [1] [nM] | TGI [1] [µM] | GI50 [2] [nM] | TGI [2] [µM] | GI50 [3] [nM] | TGI [3] [µM] | GI50 [4] [nM] | TGI [4] [µM] | GI50 [5] [nM] | TGI [5] [µM] | GI50 [6] [nM] | TGI [6] [µM] | GI50 [7] [nM] | TGI [7] [µM] | GI50 [8] [nM] | TGI [8] [µM] | GI50 [9] [µM] | TGI [9] [µM] | GI50 [10] [nM] | TGI [10] [µM] |
| --- | --- | --- | --- | --- | --- | --- | --- | --- | --- | --- | --- | --- | --- | --- | --- | --- | --- | --- | --- | --- |
| O=C(CC1(O)C(=O)N(Cc2ccccc2)c2ccccc21)c1ccc(C(=O)NCC2CCC3(CC2)OOC2(CCCCC2)OO3)cc1 (configuration not stated) | 184 | 0.434 | 1760 | 4.76 | 2300 | 5.06 | 539 | 2.09 | 421 | 2.17 | 1290 | 3.51 | 2420 | 7.32 | 2200 | 5.44 | 0.287 | 0.817 | 1950 | 5.35 |
| N#CC(C#N)c1ccc(C(=O)N2CCC[C@H]2CO)cc1 | – | > 100 | – | > 100 | – | > 100 | – | > 100 | – | > 100 | – | > 100 | – | – | – | > 100 | – | > 100 | – | > 100 |
| CC1OC(OC2C(O)CC(OC3C(O)CC(OC4CCC5(C)C(CCC6C5CC(O)C5(C)C(C7=CC(=O)OC7)CCC65O)C4)OC3C)OC2C)CC(O)C1O (configuration not stated) | – | – | 113 | 0.293 | 146 | 0.451 | 25.3 | 0.0564 | 35.8 | 0.245 | 30.5 | 0.088 | 107 | 0.544 | 157 | 0.333 | 0.0566 | 0.196 | 34.7 | 0.139 |
| CCCCCCNC(=O)Oc1ccc(/C(=C(\C)c2ccc(Cl)cc2)c2ccc(OCCN3CCCCC3)cc2)cc1 | 3550 | 7.88 | 1070 | 4.71 | 4390 | 9.17 | 1170 | 4.88 | 3200 | 33.3 | 1570 | 5.46 | – | – | 4030 | 8.59 | 5.53 | 11.7 | 2350 | 7.73 |
| Cn1cc(C2=C(c3cccc(OC[C@@H](O)CO)c3)C(=O)NC2=O)c2ccccc21 | > 25000 | > 25 | > 25000 | > 25 | > 25000 | > 25 | > 25000 | > 25 | > 22500 | > 25 | > 25000 | > 25 | 656 | > 5.77 | > 25000 | > 25 | > 25 | > 25 | > 16400 | > 25 |
| COc1cc2c(cc1OCCCCN1CCN(C(=S)SCCC(C#N)(c3ccccc3)c3ccccc3)CC1)N=C[C@@H]1CCCN1C2=O | 1070 | 14.3 | 1410 | 3.9 | – | – | 324 | 1.57 | 532 | > 100 | 1250 | 4.02 | 1190 | 2.81 | 1320 | 3.55 | 1.59 | > 100 | 1820 | 17.7 |
| N#CCN1CCn2c1nsc2=S | > 100000 | > 100 | > 100000 | > 100 | – | – | 20200 | > 100 | 1600 | > 100 | > 100000 | > 100 | > 100000 | > 100 | > 100000 | > 100 | > 100 | > 100 | > 100000 | > 100 |
| COc1ccc(N(CC(=O)NCCC[Te]c2ccccc2)C(=O)CNC(=O)OC(C)(C)C)cc1 | 2360 | 4.94 | 3150 | 11.7 | 2600 | 6.6 | 2080 | 5.6 | – | – | 450 | 1.85 | 2280 | 5.35 | 1650 | 3.79 | 2.41 | 6.92 | 22600 | > 100 |
| CCN(CC)CCCCCCNc1cc(OC)cc2cccnc12 | 12500 | 27.6 | 1900 | 3.78 | 2320 | 5 | 1940 | 4.03 | 2390 | 4.97 | 2000 | 3.79 | – | – | 2290 | 5.16 | 3.04 | 8.99 | 2500 | 9.55 |
| O=C(CC1SC(=Nc2ccccc2Cl)NC1=O)Nc1ccc(Cl)cc1Cl (configuration not stated) | – | > 100 | – | – | – | > 100 | – | > 100 | – | > 100 | – | > 100 | – | – | – | > 100 | – | > 100 | – | > 100 |
| COc1cc2c(cc1OC)-c1ncc3c(OC)c(OC)c(OC)cc3c1C2 | 58500 | > 100 | 13700 | 44.5 | 47700 | > 100 | 10200 | > 100 | – | – | 15300 | 61.3 | – | – | 3840 | 25.6 | 16.3 | 38.5 | 96500 | > 100 |
| O=C(O)/C=C/c1nc2ccccc2c(=O)o1 | – | > 100 | – | > 100 | – | > 100 | – | > 100 | – | > 100 | – | – | – | – | – | > 100 | – | > 100 | – | > 100 |
| COc1ncnc(NS(=O)(=O)c2ccc(N=C3C(=O)N(CN4CCN(c5c(F)cc6c(=O)c(C(=O)O)cn(C7CC7)c6c5OC)CC4C)c4ccc(Br)cc43)cc2)c1OC (configuration not stated) | 176 | 0.477 | 4730 | > 50 | – | – | 8400 | > 50 | – | – | 3990 | 19.5 | 11300 | > 50 | 2610 | 11.3 | 15.3 | > 50 | > 50000 | > 50 |
| OC(C#Cc1ccccc1)(c1ccccc1)c1ccccc1 | – | – | – | > 100 | – | > 100 | – | > 100 | – | 35.3 | – | 50.6 | – | 83.4 | – | > 100 | – | > 100 | – | > 100 |
| C[N+](C)(C)CC1CCCC1=O (configuration not stated) | – | 2.66 | – | 7.44 | – | 29.9 | – | > 20.2 | – | – | – | 38.9 | – | 17.7 | – | 5.67 | – | 4.99 | – | 1.8 |
| COCOCC/C=C/C=O | – | > 100 | – | > 100 | – | > 100 | – | > 100 | – | > 100 | – | > 100 | – | > 100 | – | > 100 | – | > 100 | – | – |
